{"source": "paper PMC7874389", "about": "(Nature, 2020)", "key": {"C57BL/6J mice [1]": {"test_system": "C57BL/6J mice", "assay": "Head-twitch response", "conditions": "i.p., 5-MeO-DMT 10 mg/kg, IBG and TBG fumarate salts 10 and 50 mg/kg"}, "[2]": {"test_system": "rodents trained to discriminate DOM from saline", "conditions": "cited from earlier work"}, "C57BL/6J mice [3]": {"test_system": "C57BL/6J mice", "conditions": "cited from earlier work"}, "[4]": {"test_system": "mouse primary sensory cortex", "assay": "In vivo spine dynamics, transcranial 2-photon imaging", "conditions": "24 h after treatment; DOI 10 mg/kg, TBG 50 mg/kg i.p."}, "C57/BL6J mice": {"test_system": "C57/BL6J mice", "assay": "Forced swim test in the absence of UMS", "assay_type": "in vivo, mouse"}, "[5]": {"test_system": "larval zebrafish expressing GCaMP5", "assay": "Larval zebrafish seizure experiments", "assay_type": "in vivo", "conditions": "IBO and TBG 50 μM, PTZ 15 mM, 1 h"}, "larval zebrafish": {"test_system": "larval zebrafish", "assay": "Larval zebrafish behavioral profiling", "assay_type": "in vivo", "conditions": "1–200 μM, 7 dpf, battery of light and acoustic stimuli"}}, "data": [{"compound": "COc1ccc2[nH]cc(CCN(C)C)c2c1", "note": "[5-MeO-DMT, 5-methoxy-N,N-dimethyltryptamine]", "values": [{"measurement": "head-twitch response (hallucinogenic potential)", "setting": "C57BL/6J mice [1]", "value": "produces a robust HTR"}]}, {"compound": "COc1ccc2c(CCN(C)C)c[nH]c2c1", "note": "[6-MeO-DMT]", "values": [{"measurement": "substitution for DOM", "setting": "[2]", "value": "did not substitute for the hallucinogen 2,5-dimethoxy-4-methylamphetamine (DOM) at any dose"}, {"measurement": "head-twitch response", "setting": "C57BL/6J mice [3]", "value": "does not produce a head-twitch response"}]}, {"compound": "COc1cc(CC(C)N)c(OC)cc1I", "note": "(centres unmarked) [DOI, 2,5-dimethoxy-4-iodoamphetamine]", "values": [{"measurement": "spine elimination", "setting": "[4]", "value": "without impacting spine elimination"}, {"measurement": "spine formation", "setting": "[4]", "value": "increased spine formation"}]}, {"compound": "CNC1(c2ccccc2Cl)CCCCC1=O", "note": "(centres unmarked) [KET, ketamine]", "values": [{"measurement": "FST immobility", "setting": "C57/BL6J mice; 24 h following administration, TBG 50 mg/kg, ketamine 3 mg/kg i.p.", "value": "significantly reduced immobility"}, {"measurement": "durability of FST effect", "setting": "C57/BL6J mice; 7 d post drug administration", "value": "appeared to be more durable"}]}, {"compound": "C1CCc2nnnn2CC1", "note": "[PTZ, pentylenetetrazole]", "values": [{"measurement": "seizurogenic potential (neural activity, GCaMP5 fluorescence)", "setting": "[5]", "value": "excessive neural activity"}, {"measurement": "behavioral profile versus vehicle and lethal (eugenol) controls", "setting": "larval zebrafish", "value": "produce behavioral phenotypes more closely resembling a lethal phenotype"}]}, {"compound": "O=S1OCC2C(CO1)C1(Cl)C(Cl)=C(Cl)C2(Cl)C1(Cl)Cl", "note": "(centres unmarked) [endosulfan]", "values": [{"measurement": "behavioral profile versus vehicle and lethal (eugenol) controls", "setting": "larval zebrafish", "value": "produce behavioral phenotypes more closely resembling a lethal phenotype"}]}, {"compound": "O=C(CCCN1CCC(O)(c2ccc(Cl)cc2)CC1)c1ccc(F)cc1", "note": "[haloperidol]", "values": [{"measurement": "behavioral profile versus vehicle and lethal (eugenol) controls", "setting": "larval zebrafish", "value": "more closely resembling the lethal control"}]}, {"compound": "O=C1NCCN1CCN1CCC(c2cn(-c3ccc(F)cc3)c3ccc(Cl)cc23)CC1", "note": "[sertindole]", "values": [{"measurement": "behavioral profile versus vehicle and lethal (eugenol) controls", "setting": "larval zebrafish", "value": "more closely resembling the lethal control"}]}, {"compound": "CC(C)(C)c1ccc(C(O)CCCN2CCC(C(O)(c3ccccc3)c3ccccc3)CC2)cc1", "note": "(centres unmarked) [terfenadine]", "values": [{"measurement": "behavioral profile versus vehicle and lethal (eugenol) controls", "setting": "larval zebrafish", "value": "more closely resembling the lethal control"}]}, {"compound": "picrotoxin", "values": [{"measurement": "behavioral profile versus vehicle and lethal (eugenol) controls", "setting": "larval zebrafish", "value": "produce behavioral phenotypes more closely resembling a lethal phenotype"}]}]}
